Source: PubChem BioAssay (NCI)
“And” between values parts separate entries of the source, which are not always exact repeats. Identical values can stand only once.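 Values below derive from 48-hour exposures of cells grown in 96-well plates, with endpoints linearly interpolated between the two concentrations bracketing the appropriate inhibition level. GI50 = concentration required for 50% inhibition of growth. At the TGI there is no net growth.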

Key:
Test in all cases: DTP human tumour cell line panel, 48 h
[1] = test system: SW-620 colon
[2] = test system: SK-MEL-5 melanoma
[3] = test system: SF-539 CNS
[4] = test system: RXF 393 renal
[5] = test system: SK-MEL-28 melanoma
[6] = test system: IGROV1 ovarian
[7] = test system: NCI-H460 lung
[8] = test system: A498 renal
[9] = test system: BT-549 breast
[10] = test system: CCRF-CEM leukemia
[11] = test system: SNB-19 CNS

CCOP(=O)(OCC)[C@H](O)c1ccsc1
TGI [1]: > 100 µM | TGI [2]: > 100 µM | TGI [3]: > 100 µM | TGI [4]: > 100 µM | TGI [5]: > 100 µM | TGI [6]: > 100 µM | TGI [7]: > 100 µM | TGI [8]: > 100 µM | TGI [9]: > 100 µM | TGI [10]: > 100 µM | TGI [11]: > 100 µM

CCCCN(CC)c1nc(C)nc2c1c(C)c(C)n2-c1c(C)cc(C)cc1C
TGI [1]: 33.4 µM | TGI [2]: 17.6 µM | TGI [3]: 6.46 µM | TGI [4]: 19.7 µM | TGI [5]: 31.5 µM | TGI [6]: 29.2 µM | TGI [7]: 27.5 µM | TGI [8]: 31.3 µM | TGI [9]: 34.3 µM | TGI [10]: 32.7 µM | TGI [11]: 33.3 µM

C=CC(=O)c1ccc2c(c1)OCCOCCOCCOCCOCCO2
TGI [1]: 35.2 µM | TGI [2]: > 100 µM | TGI [3]: 33.2 µM | TGI [4]: 32.3 µM | TGI [5]: 34 µM | TGI [6]: > 100 µM | TGI [7]: > 100 µM | TGI [8]: > 100 µM | TGI [9]: 37.2 µM | TGI [10]: > 100 µM | TGI [11]: > 100 µM

COc1ccc(-c2c(C#N)c(N)n(C3OC(CO)C(O)C(O)C3O)c(=S)c2C#N)cc1 (stereo unspecified)
TGI [1]: > 100 µM | TGI [2]: > 100 µM | TGI [3]: > 100 µM | TGI [4]: > 100 µM | TGI [5]: > 100 µM | TGI [6]: > 100 µM | TGI [7]: > 100 µM | TGI [8]: > 100 µM | TGI [9]: > 100 µM | TGI [10]: > 100 µM | TGI [11]: > 100 µM

O=c1oc2ccccc2c(O)c1C(c1cc(OCc2ccccc2)cc(OCc2ccccc2)c1)c1c(O)c2ccccc2oc1=O
TGI [1]: > 43.8 µM | TGI [2]: 21.2 µM | TGI [3]: 36.7 µM | TGI [4]: > 52 µM | TGI [5]: 51.8 µM | TGI [6]: 51.2 µM | TGI [7]: 11 µM | TGI [8]: 32.1 µM | TGI [9]: 20.9 µM | TGI [10]: > 22.5 µM | TGI [11]: 17.9 µM

Cc1c(S(=O)(=O)c2ccccc2)c(N)n(Cc2ccccc2)c1C
TGI [1]: > 100 µM | TGI [2]: > 100 µM | TGI [3]: > 100 µM | TGI [4]: > 100 µM | TGI [5]: > 100 µM | TGI [6]: > 100 µM | TGI [7]: > 100 µM | TGI [8]: > 100 µM | TGI [9]: > 100 µM | TGI [10]: > 100 µM | TGI [11]: > 100 µM

Oc1ccccc1C(c1cc2c(cc1O)OCO2)N1CCOCC1 (stereo unspecified)
TGI [1]: 70.8 µM | TGI [2]: 31.7 µM | TGI [3]: 39.2 µM | TGI [4]: 30.8 µM | TGI [5]: 38.5 µM | TGI [6]: 35.7 µM | TGI [7]: 72.7 µM | TGI [8]: 42.2 µM | TGI [9]: 30.9 µM | TGI [10]: 5.26 µM | TGI [11]: 37.2 µM

N#Cc1c(N)[nH]c(=S)c(C#N)c1-c1cccc(Cl)c1
TGI [1]: > 100 µM | TGI [2]: > 100 µM | TGI [3]: > 100 µM | TGI [4]: 46.6 µM | TGI [5]: > 100 µM | TGI [6]: > 100 µM | TGI [7]: > 100 µM | TGI [8]: > 100 µM | TGI [9]: > 100 µM | TGI [11]: > 100 µM

COc1ccc(-c2c(C#N)c(S)n(C3OC(COC(C)=O)C(OC(C)=O)C(OC(C)=O)C3OC(C)=O)c(=O)c2C#N)cc1 (stereo unspecified)
TGI [1]: > 100 µM | GI50 [2]: 60.7 µM and 29.3 µM | TGI [2]: > 100 µM | TGI [3]: > 100 µM | TGI [4]: 71.7 µM and 73 µM | GI50 [5]: > 100 µM and 20.8 µM | TGI [5]: > 100 µM and 37.3 µM | GI50 [6]: > 100 µM and 49.7 µM | TGI [6]: > 100 µM | TGI [7]: > 100 µM | TGI [8]: 90.5 µM and 77.3 µM | TGI [9]: 74.4 µM and 79 µM | TGI [10]: > 100 µM | GI50 [11]: 34.1 µM and 75.3 µM | TGI [11]: > 100 µM

Cc1ccc2c(c1C)CC1(Cc3c(ccc4c3CCC4)C1=O)C2=O (stereo unspecified)
TGI [1]: > 100 µM | TGI [2]: > 100 µM | TGI [3]: > 100 µM | TGI [4]: > 100 µM | TGI [5]: > 100 µM | TGI [6]: > 100 µM | TGI [7]: > 100 µM | TGI [8]: > 100 µM | TGI [9]: > 100 µM | TGI [10]: > 100 µM | TGI [11]: > 100 µM

Cc1ccc(N=Nc2c3c(c(O)c4ccccc24)CCC(C)(C)O3)cc1
TGI [1]: > 100 µM | TGI [2]: 15.7 µM | TGI [3]: > 100 µM | TGI [4]: > 100 µM | TGI [5]: 42.1 µM | TGI [6]: > 100 µM | TGI [7]: 32.8 µM | TGI [8]: 38.6 µM | TGI [9]: 58.7 µM | TGI [10]: 39.6 µM | TGI [11]: 42.7 µM

c1ccc([P+](CCNCCNCC[P+](c2ccccc2)(c2ccccc2)c2ccccc2)(c2ccccc2)c2ccccc2)cc1
TGI [1]: > 100 µM | TGI [2]: > 100 µM | TGI [3]: > 100 µM | TGI [4]: > 100 µM | TGI [5]: > 100 µM | TGI [6]: > 100 µM | TGI [7]: > 100 µM | TGI [8]: > 100 µM | TGI [9]: > 100 µM | TGI [11]: > 100 µM

O=C(/C(=C(/Br)I)c1ccccc1)c1ccccc1
TGI [2]: 41.8 µM | TGI [3]: 37.7 µM | TGI [4]: 31.6 µM | TGI [6]: > 100 µM | TGI [7]: 37.2 µM | TGI [8]: 28.7 µM | TGI [9]: 54.3 µM | TGI [10]: 30.4 µM | TGI [11]: > 100 µM

COc1ccc(Nc2c(C#N)c3n(c4ccccc24)c2ccccc2[n+]3C)cc1OC
TGI [1]: 15.7 µM | TGI [2]: 15.5 µM | TGI [3]: 6.88 µM | TGI [4]: 9.46 µM | TGI [5]: 17.9 µM | TGI [6]: 17.8 µM | TGI [7]: 6.46 µM | TGI [8]: 20.4 µM | TGI [9]: 42.6 µM | TGI [10]: > 100 µM | TGI [11]: 32.4 µM

COC(=O)C(=O)CC(=O)CCn1ncc(Cl)c(Cl)c1=O
TGI [1]: 13.3 µM | TGI [2]: 30.8 µM | TGI [3]: 35.2 µM | TGI [4]: 33.9 µM | TGI [5]: 21.9 µM | TGI [6]: 33.4 µM | TGI [7]: 32.3 µM | TGI [8]: 49.6 µM | GI50 [9]: 14.4 µM | TGI [9]: 27.7 µM | TGI [10]: 9.72 µM | TGI [11]: 32.5 µM

CCOC(=O)c1sc2nc(SC)nc3c2c1N=CN3c1ccc(Br)cc1
TGI [1]: > 100 µM | TGI [2]: > 100 µM | TGI [4]: > 100 µM | TGI [5]: > 100 µM | TGI [6]: > 100 µM | TGI [7]: > 100 µM | TGI [8]: > 100 µM | TGI [9]: > 100 µM | TGI [10]: > 100 µM | TGI [11]: > 100 µM

Cc1sc2nc3n(c(=O)c2c1C)N=CN(c1ccccc1)C3
TGI [1]: > 100 µM | TGI [2]: > 100 µM | TGI [4]: > 100 µM | TGI [5]: > 100 µM | TGI [6]: > 100 µM | TGI [7]: > 100 µM | TGI [8]: > 100 µM | TGI [9]: > 100 µM | TGI [10]: > 100 µM | TGI [11]: > 100 µM
